Patent publication US7888363B2, “Viral polymerase inhibitors” (Boehringer Ingelheim International GmbH, priority 2003, dated 2011)

The compounds below were run against hepatitis C virus RNA dependant polymerase (NS5B) (Hepatitis C virus genotype 1b, UniProt P26663) (assay: Inhibition of NS5B RNA dependent RNA polymerase activity). Details: Table 1; HCV NS5B polymerase.
Sequence of hepatitis C virus RNA dependant polymerase (NS5B) (P26663 2420-3010): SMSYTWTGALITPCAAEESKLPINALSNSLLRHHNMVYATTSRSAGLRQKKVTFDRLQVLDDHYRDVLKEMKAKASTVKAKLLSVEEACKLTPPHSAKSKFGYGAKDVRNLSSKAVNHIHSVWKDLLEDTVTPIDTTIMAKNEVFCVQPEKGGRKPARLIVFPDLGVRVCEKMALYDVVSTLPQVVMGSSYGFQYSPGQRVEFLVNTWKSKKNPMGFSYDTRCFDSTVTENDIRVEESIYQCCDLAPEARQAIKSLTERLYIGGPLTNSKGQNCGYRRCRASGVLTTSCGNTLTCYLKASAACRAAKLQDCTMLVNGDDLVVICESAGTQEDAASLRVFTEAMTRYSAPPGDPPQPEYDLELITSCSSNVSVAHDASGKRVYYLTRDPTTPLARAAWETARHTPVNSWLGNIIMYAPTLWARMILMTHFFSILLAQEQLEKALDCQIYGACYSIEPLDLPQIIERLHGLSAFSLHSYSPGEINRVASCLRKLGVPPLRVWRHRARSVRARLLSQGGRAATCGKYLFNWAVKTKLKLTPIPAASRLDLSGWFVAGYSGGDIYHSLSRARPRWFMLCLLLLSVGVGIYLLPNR
Format: biochemical
Protocol: A suitable assay is described in the examples.
Inhibition of NS5B RNA Dependent RNA Polymerase Activity
The compounds of the invention were tested for inhibitory activity against the hepatitis C virus RNA dependant polymerase (NS5B), according to protocol described in WO 03/010141
With `CC(C)(C)C(=O)Cn1c(-c2ccoc2)c(C2CCCCC2)c2ccc(C(=O)O)cc21` [Example 1001] the IC50 was 0.2 to 1 µM. In the case of `O=C(O)c1ccc2c(C3CCCCC3)c(-c3ccco3)n(CC(=O)N3CCOCC3)c2c1` [Example 1030], the IC50 is reported as < 0.2 µM. Work on `CN(Cc1cccnc1)C(=O)Cn1c(-c2ccoc2)c(C2CCCCC2)c2ccc(C(=O)O)cc21` [Example 1114] yielded an IC50 of 0.2 to 1 µM. In the case of `O=C(O)c1ccc2c(C3CCCCC3)c(-c3ccco3)n(CC(=O)N3CCC(N4CCCC4)CC3)c2c1` [Example 1038], the IC50 is reported as < 0.2 µM. In the case of `O=C(O)c1ccc2c(C3CCCCC3)c(-c3cc4ccccc4s3)n(CC(=O)N3CCOCC3)c2c1` [Example 1042], the IC50 is reported as 0.2 to 1 µM. Work on `COCCNC(=O)Cn1c(-c2ccoc2)c(C2CCCCC2)c2ccc(C(=O)O)cc21` [Example 1107] yielded an IC50 of 0.2 to 1 µM. `CN(C)C(=O)Cn1c(-c2ccccc2)c(C2CCCCC2)c2ccc(C(=O)O)cc21` [Example 1025] was tested, and the IC50 was < 0.2 µM. `COc1ccc(CNC(=O)Cn2c(-c3ccoc3)c(C3CCCCC3)c3ccc(C(=O)O)cc32)cc1` [Example 1064] was tested, and the IC50 was 1 to 10 µM. `O=C(O)CN1CCN(C(=O)Cn2c(-c3ccc(Br)cn3)c(C3CCCCC3)c3ccc(C(=O)O)cc32)CC1` [Example 1139] was tested, and the IC50 was < 0.2 µM. For `O=C(O)CN1CCN(C(=O)Cn2c(-c3ccoc3)c(C3CCCCC3)c3ccc(C(=O)O)cc32)CC1` [Example 1074], the IC50 was < 0.2 µM. `NC(=O)[C@@H]1CCCN1C(=O)Cn1c(-c2ccoc2)c(C2CCCCC2)c2ccc(C(=O)O)cc21` [Example 1057] was tested, and the IC50 was < 0.2 µM. With `CCN(CC)CCN(C)C(=O)Cn1c(-c2ccoc2)c(C2CCCCC2)c2ccc(C(=O)O)cc21` [Example 1021] the IC50 was < 0.2 µM. `O=C(O)c1ccc2c(C3CCCCC3)c(-c3ccccc3)n(CC(=O)N3CCOCC3)c2c1` [Example 1023] was tested, and the IC50 was < 0.2 µM. With `O=C(O)c1ccc2c(C3CCCCC3)c(-c3ccoc3)n(CC(=O)N3CCC(CCO)CC3)c2c1` [Example 1102] the IC50 was < 0.2 µM. For `O=C(Cn1c(-c2ccoc2)c(C2CCCCC2)c2ccc(C(=O)O)cc21)NCC1CCCCC1` [Example 1089], the IC50 was 0.2 to 1 µM. In the case of `CN(C)C(=O)CN1CCN(C(=O)Cn2c(-c3ccoc3)c(C3CCCCC3)c3ccc(C(=O)O)cc32)CC1` [Example 1130], the IC50 is reported as < 0.2 µM. With `O=C(O)c1ccc2c(C3CCCCC3)c(-c3ccoc3)n(CC(=O)N3CCOCC3)c2c1` [Example 1097] the IC50 was < 0.2 µM. `CN(C)c1ccc(NC(=O)Cn2c(-c3ccoc3)c(C3CCCCC3)c3ccc(C(=O)O)cc32)cc1` [Example 1105] showed an IC50 of 0.2 to 1 µM.

Same assay, conditions: Table 2; HCV NS5B polymerase
With `Cc1c(S(=O)(=O)NC(=O)c2ccc3c(C4CCCCC4)c(-c4ccoc4)n(CC(=O)N4CCOCC4)c3c2)cnn1-c1ccccc1` [Example 2042] the IC50 was < 0.2 µM. In the case of `O=C(NS(=O)(=O)C1CC1)c1ccc2c(C3CCCCC3)c(-c3ccoc3)n(CC(=O)N3CCOCC3)c2c1` [Example 2026], the IC50 is reported as < 0.2 µM. In the case of `COc1cc(C)ccc1S(=O)(=O)NC(=O)c1ccc2c(C3CCCCC3)c(-c3ccoc3)n(CC(=O)N3CCOCC3)c2c1` [Example 2040], the IC50 is reported as < 0.2 µM. With `O=C(NS(=O)(=O)c1cccc2nsnc12)c1ccc2c(C3CCCCC3)c(-c3ccoc3)n(CC(=O)N3CCOCC3)c2c1` [Example 2035] the IC50 was < 0.2 µM. In the case of `O=C(NS(=O)(=O)CC(F)(F)F)c1ccc2c(C3CCCCC3)c(-c3ccoc3)n(CC(=O)N3CCOCC3)c2c1` [Example 2027], the IC50 is reported as < 0.2 µM. With `O=C(NS(=O)(=O)c1cc(F)ccc1F)c1ccc2c(C3CCCCC3)c(-c3ccoc3)n(CC(=O)N3CCOCC3)c2c1` [Example 2014] the IC50 was < 0.2 µM. In the case of `O=C(NS(=O)(=O)c1c(F)cccc1F)c1ccc2c(C3CCCCC3)c(-c3ccoc3)n(CC(=O)N3CCOCC3)c2c1` [Example 2036], the IC50 is reported as < 0.2 µM. In the case of `O=C(NS(=O)(=O)c1ccc2ccccc2c1)c1ccc2c(C3CCCCC3)c(-c3ccoc3)n(CC(=O)N3CCOCC3)c2c1` [Example 2007], the IC50 is reported as < 0.2 µM. For `O=C(NS(=O)(=O)c1ccc(Cl)cc1)c1ccc2c(C3CCCCC3)c(-c3ccoc3)n(CC(=O)N3CCOCC3)c2c1` [Example 2019], the IC50 was < 0.2 µM. For `Cc1ccccc1S(=O)(=O)NC(=O)c1ccc2c(C3CCCCC3)c(-c3ccoc3)n(CC(=O)N3CCOCC3)c2c1` [Example 2016], the IC50 was < 0.2 µM. For `O=C(NS(=O)(=O)c1ccccc1)c1ccc2c(C3CCCCC3)c(-c3ccoc3)n(CC(=O)N3CCOCC3)c2c1` [Example 2001], the IC50 was < 0.2 µM.

Same assay, conditions: Table 3; HCV NS5B polymerase
With `CN1CCN(C(=O)Cn2c(-c3ccccn3)c(C3CCCCC3)c3ccc(C(=O)NC(C)(C)C(=O)Nc4ccc(/C=C/C(=O)O)cc4)cc32)CC1` [Example 3006] the IC50 was < 0.2 µM.

Same assay, conditions: Table 4; class ranges
For `CN1CCN(C(=O)Cn2c(-c3ccoc3)c(C3CCCCC3)c3ccc(C(=O)NCc4ccc(S(N)(=O)=O)cc4)cc32)CC1` [Example 4032], the IC50 was < 0.2 µM. With `CS(=O)(=O)NC(=O)c1ccc2c(C3CCCCC3)c(-c3ccoc3)n(CC(=O)N3CCC(N4CCCC4)CC3)c2c1` [Example 4109] the IC50 was < 0.2 µM. For `CN1CCN(C(=O)Cn2c(-c3ccoc3)c(C3CCCCC3)c3ccc(C(=O)NCc4ccc(O)c(O)c4)cc32)CC1` [Example 4029], the IC50 was < 0.2 µM. Work on `CN(C)C(=O)Cn1c(-c2ccoc2)c(C2CCCCC2)c2ccc(C(=O)NCCc3ccncc3)cc21` [Example 4057] yielded an IC50 of 0.2 to 1 µM. In the case of `CC(C)(NC(=O)c1ccc2c(C3CCCCC3)c(-c3ccoc3)n(CC(=O)N3CCOCC3)c2c1)C(N)=O` [Example 4077], the IC50 is reported as < 0.2 µM. With `NC(=O)C1(NC(=O)c2ccc3c(C4CCCCC4)c(-c4ccoc4)n(CC(=O)N4CCOCC4)c3c2)CCCC1` [Example 4072] the IC50 was < 0.2 µM. Work on `CC(C)Nc1nc(C2(NC(=O)c3ccc4c(C5CCCCC5)c(-c5ccoc5)n(CC(=O)N5CCC(N6CCCC6)CC5)c4c3)CCC2)cs1` [Example 4105] yielded an IC50 of 0.2 to 1 µM. For `CNC(=O)C1(NC(=O)c2ccc3c(C4CCCCC4)c(-c4ccoc4)n(CC(=O)N4CCC(N5CCCC5)CC4)c3c2)CCC1` [Example 4089], the IC50 was < 0.2 µM. For `CC(C)(NC(=O)c1ccc2c(C3CCCCC3)c(-c3ccoc3)n(CC(=O)N3CCC(N4CCCC4)CC3)c2c1)C(N)=O` [Example 4081], the IC50 was < 0.2 µM. `CNC(=O)C1(NC(=O)c2ccc3c(C4CCCCC4)c(-c4ccoc4)n(CC(=O)N4CCOCC4)c3c2)CCC1` [Example 4091] gave an IC50 of 0.2 to 1 µM. With `CN(C)C(=O)C1(NC(=O)c2ccc3c(C4CCCCC4)c(-c4ccoc4)n(CC(=O)N4CCC(N5CCCC5)CC4)c3c2)CCCC1` [Example 4095] the IC50 was < 0.2 µM.

Same assay, conditions: Table 5; HCV NS5B polymerase
Work on `O=C(O)c1ccc2c(C3CCCCC3)c(-c3ccoc3)n(CC(=S)N3CCOCC3)c2c1` [Example 5001] yielded an IC50 of 0.2 to 1 µM. `O=C(O)c1ccc2c(C3CCCCC3)c(-c3ccoc3)n(CCC(=O)N3CCOCC3)c2c1` [Example 5002] gave an IC50 of 0.2 to 1 µM. `CC(C)=CCn1c(-c2ccoc2)c(C2CCCCC2)c2ccc(C(=O)O)cc21` [Example 5006] gave an IC50 of 1 to 10 µM.

Same assay, conditions: Table 7; class ranges
Compound `NC(=O)C1CCN(C(=O)c2ccc3c(c2)c(C2CCCCC2)c(-c2ccoc2)n3CC(=O)N2CCC(N3CCCC3)CC2)CC1` [Example 7035] has an IC50 of 1 to 10 µM. Work on `COC(=O)c1cc2c(cc1O)c(C1CCCCC1)c(-c1ccoc1)n2CC(=O)N1CCC(N2CCCC2)CC1` [Example 7010] yielded an IC50 of 1 to 10 µM. Compound `NC(=O)C1CCCN(C(=O)c2ccc3c(c2)c(C2CCCCC2)c(-c2ccoc2)n3CC(=O)N2CCC(N3CCCC3)CC2)C1` (stereo not shown) [Example 7017] has an IC50 of 1 to 10 µM. With `CN1C(C)(C)CC(NC(=O)c2ccc3c(c2)c(C2CCCCC2)c(-c2ccoc2)n3CC(=O)N2CCC(N3CCCC3)CC2)CC1(C)C` [Example 7053] the IC50 was 0.2 to 1 µM. For `O=C(O)Cc1cccc(NC(=O)c2ccc3c(c2)c(C2CCCCC2)c(-c2ccoc2)n3CC(=O)N2CCC(N3CCCC3)CC2)c1` [Example 7055], the IC50 was 1 to 10 µM.
